Results from patent US9221800B2, “Isoxazole treatments for diabetes” (The Board of Regents of the University of Texas System, priority 2011, dated 2015).

Experiments:
Type in all cases: cell-based, mouse
MIN6 cells = test: Immunoblotting of MIN6 whole cell lysates; details: MIN6 pretreated with inhibitors 16 h (FIG. 4A); nifedipine in combination with the chelating agent BAPTA
Procedure: FIGS. 2[…]-1) activates insulin expression and improves β cell function in MIN6 cells. (FIG. 2A) Dose-response relationship of MIN6 cells treated with 5-80 μM Isx for 24 h or DMSO (0.08%-similar to the highest concentration of Isx). Whole cell lysates (40 μg) were subjected to immunoblotting using antibodies against BETA2NeuroD1, MafA, PDX-1, pERK1/2 (pT183/[…]), acetylated histones […] and ACH3K9 and total histone H3. (FIG. 2B) Quantitative RT-PCR of murine insulin1 and insulin2 gene expression in MIN6 cells treated with Isx for 24 h as in FIG. 2A. […] (FIG. 2D) Insulin content measured by ELISA in MIN6 cells treated with Isx for 24 or 48 h. (FIG. 2E) GSIS induced by glucose, amino acids (AA) and Exendin-4 (Ex-4) singly or in combination in MIN6 cells pretreated with Isx for 48 h. FIGS. 4[…]-1) is a HAT activator. (FIG. 4A) Immunoblots of acetylated histones in MIN6 cells pretreated with the indicated inhibitors for 16 h and then treated with vehicle or Isx. (FIGS. 4B-C) HDAC (FIG. 4B) and HAT (FIG. 4C) activities in 50 μg of nuclear extract protein from MIN6 cells treated with Isx or DMSO for 24 h. Trichostatin A (TSA; 2 μM) was added at as a positive control. HeLa nuclear extract also was included as a positive control. […] Statistical analysis was performed using Student's t test as in FIGS. 1A-E. *P<0.05; **P<0.01. (FIG. 4G) Simplified view of the actions of Isx. FIG. 6. Time course of […]-1) treatment in MIN6 cells. Immunoblotting of whole cell extracts from MIN6 cells grown for 24 h in complete DMEM containing […] and treated with 20 μM Isx for from 15 min to 24 h. The control (0 min) was treated with DMSO for 24 h. MIN6 cells were cultured in DMEM (Gibco), containing 25 mM glucose, 10% fetal bovine serum, 10 mM Hepes pH 7.4, 10.2 mM L-glutamine, […] sodium pyruvate, 2.5 mM β-mercaptoethanol, 100 U/ml penicillin and 100 μg/ml streptomycin at 37° C. in 10% CO2. Human islets were obtained from the ICR Basic Science Islet Distribution and from the University of Alabama, Birmingham Islet Resource Facility and were cultured in RPMI 1640 with 11 mM glucose for up to 1 year. The medium was changed twice weekly and the islets were subcultured when they reached 90% confluence. For Isx treatments, cells were incubated in medium containing either Isx or the equivalent volume of DMSO vehicle (0.04%). To measure GSIS, cells were placed in Krebs-Ringer bicarbonate/Hepes containing 0.1% bovine serum albumin and 2 mM glucose for 2 h, and stimulated for 15 min with 20 mM glucose, a 1× amino-acid mixture (concentrations as in DMEM), or 50 nM Exendin-4.

HAT = HAT activity in nuclear extracts of treated MIN6 cells; details: MIN6 cells expressing p300; 10 μM U0126
Procedure: (§1) The histone acetyl transferase and deacetylase activities were measured in 50 μg of nuclear protein using the HAT and HDAC activity colorimetric assay kits from Biovision Biotechnology according to manufacturer's recommendations.

HDAC = HDAC activity in nuclear extracts of treated MIN6 cells; details: 24 h treatment, TSA 2 μM positive control (FIG. 4B)
Procedure: as §1

Compound | effect on Isx-induced acetylation of H4 (MIN6 cells) | effect on acetylation of H3 on lysines 9 and 14 induced by Isx (MIN6 cells) | effect on the Isx-induced increase in HAT activity (HAT) | HDAC activity in MIN6 cells (HDAC)
O=C(NOC[C@H](O)CO)c1ccc(F)c(F)c1Nc1ccc(I)cc1F [PD325901, reference compound] | inhibited | little effect | – | –
N#CC(=C(/N)Sc1ccccc1N)/C(C#N)=C(\N)Sc1ccccc1N [U0126, reference compound] | inhibited | little effect | inhibited | –
COC[C@H]1OC(=O)c2coc3c2[C@@]1(C)C1=C(C3=O)[C@@H]2CCC(=O)[C@@]2(C)C[C@H]1OC(C)=O [wortmannin, reference compound] | no effect | no effect | – | –
trichostatin A [reference compound] | – | – | – | inhibited
